These are literature values, as cited in patent US20100255080A1, “Liposomal ALA pharmaceutical and cosmeceutical compositions and methods of treatment” (SESVALIA USA, LLC, priority 2009, published 2010).

For the data set the following is noted: printed as the pH near the pka.

On to `Cl.NCC(=O)CCC(=O)O` [ALA, 5-aminolevulinic acid], for which the pka result is listed as “about 4”.
